Earlier results in patent US8222245B2, “Oxadiazole derivatives active on sphingosine-1-phosphate (S1P)” (Glaxo Group Limited, priority 2007, dated 2012).

Columns and labels:
circulating lymphocytes = conditions: animals and man
[1] = clinical studies, first 24 hours of treatment

CCCCCCCCc1ccc(CCC(N)(CO)CO)cc1 [FTY720]
effect on circulating lymphocytes (circulating lymphocytes): reduce circulating lymphocytes in animals and man | bradycardia on treatment [1]: bradycardia in the first 24 hours of treatment
